Patent US6541045B1, “Herbal composition and method for combating inflammation” (Nutraceutical Corporation, priority 2002, dated 2003)

Biological target: COX-1 (Homo sapiens, UniProt P23219)
Assay: COX-1 inhibition, resveratrol versus Japanese knotweed
Assay type: biochemical
Conditions: pure resveratrol (99%) compared with Japanese knotweed

Sequence of COX-1 (P23219 24-599): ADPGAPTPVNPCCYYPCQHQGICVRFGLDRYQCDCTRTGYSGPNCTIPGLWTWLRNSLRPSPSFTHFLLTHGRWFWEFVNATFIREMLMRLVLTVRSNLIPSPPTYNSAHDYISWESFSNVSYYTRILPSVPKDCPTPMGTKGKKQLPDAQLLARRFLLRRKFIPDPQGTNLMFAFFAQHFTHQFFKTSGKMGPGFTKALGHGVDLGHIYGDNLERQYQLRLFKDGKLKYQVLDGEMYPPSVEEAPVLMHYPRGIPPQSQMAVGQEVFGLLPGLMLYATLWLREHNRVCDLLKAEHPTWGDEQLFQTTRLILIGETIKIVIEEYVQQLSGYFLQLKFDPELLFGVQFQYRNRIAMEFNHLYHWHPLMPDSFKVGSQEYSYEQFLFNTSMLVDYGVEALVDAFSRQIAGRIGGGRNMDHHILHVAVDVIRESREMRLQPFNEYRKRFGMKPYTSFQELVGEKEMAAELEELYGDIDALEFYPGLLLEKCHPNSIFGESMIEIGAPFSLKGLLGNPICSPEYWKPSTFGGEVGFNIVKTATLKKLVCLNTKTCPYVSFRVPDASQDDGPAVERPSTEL

Oc1ccc(C=Cc2cc(O)cc(O)c2)cc1 [resveratrol]
effectiveness for COX-1: just as effective
